Laboratory results from patent publication US11547655B2, “Use of an extract of the pericarp of Nephelium lappaceum for hydrating the skin and/or mucous membranes” (BASF Beauty Care Solutions France S.A.S., priority 2017, dated 2023).

System: involucrin
Assay: Involucrin synthesis in normal human keratinocytes, ELISA assay
Type: cell-based
Details: for MEAN (% involucrin detected): relative to the control, n=3; for stimulation of involucrin synthesis: at the concentrations tested, corresponding to those present in the cosmetic ingredient of example 4
Experimental: Normal, that is to say non-pathological, human keratinocytes were cultured in an MCDB153 medium (Dutscher France) containing 2% of fetal calf serum. After culture for 3 days at 37° C., the growth medium was replaced with MCDB153 medium containing various final concentrations of extract of N. lappaceum (by weight relative to the total volume of the medium) or without extract (Control) (table 1). The culture medium was replaced then solubilized in an extraction buffer. The amount of involucrin was quantified by ELISA assay. The results obtained are expressed as % relative to the control (n=3) (MEAN: mean; SD: Standard deviation).
Normal, that is to say non-pathological, human keratinocytes were cultured in an MCDB153 medium (Dutscher France) containing 2% of fetal calf serum. After culture for 3 days at 37° C., the growth medium was replaced with MCDB153 medium containing two final concentrations of ellagic acid or of geranin (w/v final medium) or without ellagic acid or without geranin (Control) (table 3). The culture medium was replaced. The amount of involucrin was quantified by ELISA assay. The results obtained are expressed as % relative to the control (n=3).

Compound | MEAN (% involucrin detected) (1.5 × 10^−3% (w/v medium)) [%] | MEAN (% involucrin detected) (9 × 10^−4% (w/v medium)) [%] | stimulation of involucrin synthesis | MEAN (% involucrin detected) (1.1 × 10^−4% (w/v medium)) [%] | MEAN (% involucrin detected) (1.9 × 10^−4% (w/v medium)) [%]
O=C1O[C@H]2[C@@H]3OC(=O)c4cc(O)c(O)c(O)c4-c4c(cc(O)c(O)c4O)C(=O)OC[C@H]2O[C@@H](OC(=O)c2cc(O)c(O)c(O)c2)[C@@H]3OC(=O)c2cc(O)c(O)c3c2[C@@H]2C1=CC(=O)[C@](O)(O3)C2(O)O [Geranin, geranin] | 29 | 78 | Neither ellagic acid nor geranin stimulated involucrin synthesis |  | 
O=c1oc2c(O)c(O)cc3c(=O)oc4c(O)c(O)cc1c4c23 [Ellagic acid, ellagic acid] |  |  | Neither ellagic acid nor geranin stimulated involucrin synthesis | 68 | 32
